In patent publication US6544991B2, “Compositions and methods for treating bacterial infections” (priority 2000, dated 2003):

What was measured:
[1] = tested on: VRSA strains; assay: MIC by agar dilution or microbroth dilution method (NCCLS), VRSA strains; type: cell-based, Staph. aureus; details: VRSA strains (n = 10)
Experimental: (§1) Bacterial isolates were obtained from human infections. The isolates were maintained frozen in a liquid nitrogen freezer and plated on Trypticase Soy Agar (TSA) plates supplemented with 5% sheep blood. The quality control strain Staph. aureus 29213 was originally acquired from the American Type Culture Collection (Rockville, Md.).
(§2) MICs were determined by an agar dilution method or microbroth dilution method recommended by NCCLS. Synergy was assessed by agar dilution checker-board method. Minimal inhibitory concentrations (MICS) for each separate drug were determined. The fractional inhibitory concentration (FIC) values were calculated by the MIC of Drug A (e.g., sulbactam/ampicillin) and Drug B (e.g., linezolid or arbekacin) in combination/MIC of Drug A or B alone. The FIC index was determined according to the following formula: [formula]
In total, 48 MRSA strains were tested, including ten VRSA strains isolated from five different countries in the world, 33 MRSA strains isolated from ten Japanese university hospitals, and five MRSA type strains from Juntendo University, Department of Bacteriology, Tokyo, Japan.

[2] = tested on: MRSA strains; assay: MIC by agar dilution or microbroth dilution method (NCCLS); type: cell-based, Staph. aureus
Experimental: as §1, §2

[3] = tested on: Staph. aureus 29213; assay: MIC, quality control strain; type: cell-based
Experimental: as §1, §2

teicoplanin
MICs Range [1]: 4 to 16 mg/L
MICs 50% ([2]; MRSA strains (n = 38)): 1 mg/L
MICs 90% ([2]; MRSA strains (n = 38)): 2 mg/L
MICs Range ([2]; MRSA strains (n = 38)): 0.5 to 4 mg/L
MIC Values ([2]; strain 85/2082): 1 µg/mL
MIC Values ([2]; strain 99.3700W): 4 µg/mL
MIC Values ([2]; strain 99.3759V): 16 µg/mL
MIC Values ([2]; strain AMC 11094): 16 µg/mL
MIC Values ([2]; strain BM12612(new)): 4 µg/mL
MIC Values ([2]; strain H1): 4 µg/mL
MIC Values ([2]; strain HIP 5827): 16 µg/mL
MIC Values ([2]; strain HIP 5836): 8 µg/mL
MIC Values ([2]; strain HIP 6297): 4 µg/mL
MIC Values ([2]; strain HIP 7737): 16 µg/mL
MIC Values ([2]; strain JSCC 340): 1 µg/mL
MIC Values ([2]; strain JSCC 351): 1 µg/mL
MIC Values ([2]; strain JSCC 363): 1 µg/mL
MIC Values ([2]; strain JSCC 381): 1 µg/mL
MIC Values ([2]; strain JSCC 390): 1 µg/mL
MIC Values ([2]; strain JSCC 401): 2 µg/mL
MIC Values ([2]; strain JSCC 413): 2 µg/mL
MIC Values ([2]; strain JSCC 431): 0.5 µg/mL
MIC Values ([2]; strain JSCC 440): 2 µg/mL
MIC Values ([2]; strain JSCC 451): 2 µg/mL
MIC Values ([2]; strain JSCC 463): 1 µg/mL
MIC Values ([2]; strain JSCC 481): 2 µg/mL
MIC Values ([2]; strain JSCC 490): 2 µg/mL
MIC Values ([2]; strain JSCC 501): 2 µg/mL
MIC Values ([2]; strain JSCC 513): 1 µg/mL
MIC Values ([2]; strain JSCC 531): 1 µg/mL
MIC Values ([2]; strain JSCC 540): 1 µg/mL
MIC Values ([2]; strain JSCC 551): 1 µg/mL
MIC Values ([2]; strain JSCC 563): 2 µg/mL
MIC Values ([2]; strain JSCC 581 (lacks the mecA gene)): 8 µg/mL
MIC Values ([2]; strain JSCC 590 (lacks the mecA gene)): 8 µg/mL
MIC Values ([2]; strain JSCC 601): 1 µg/mL
MIC Values ([2]; strain JSCC 640): 1 µg/mL
MIC Values ([2]; strain JSCC 651): 2 µg/mL
MIC Values ([2]; strain JSCC 663): 1 µg/mL
MIC Values ([2]; strain JSCC 681): 0.5 µg/mL
MIC Values ([2]; strain JSCC 690): 1 µg/mL
MIC Values ([2]; strain JSCC 701): 1 µg/mL
MIC Values ([2]; strain JSCC 713): 2 µg/mL
MIC Values ([2]; strain JSCC 731): 1 µg/mL
MIC Values ([2]; strain JSCC 740): 1 µg/mL
MIC Values ([2]; strain JSCC 751): 1 µg/mL
MIC Values ([2]; strain JSCC 763): 1 µg/mL
MIC Values ([2]; strain JSCC 781): 4 µg/mL
MIC Values ([2]; strain JSCC 870): 1 µg/mL
MIC Values ([2]; strain LIM 2): 8 µg/mL
MIC Values ([2]; strain Mu 3): 8 µg/mL
MIC Values ([2]; strain Mu 50): 16 µg/mL
MIC Values ([2]; strain N315): 0.5 µg/mL
MIC Values ([2]; strain NCTC 10442): 2 µg/mL
MIC Values ([3]; strain ATCC 29213, control sample (Ex. 26)): 1 µg/mL
MIC Values ([3]; strain ATCC29213, control sample (Ex. 37)): 1 µg/mL
